Experimental data reported in patent publication US8017612B2, “Piperazine compound and use thereof as a HCV polymerase inhibitor” (priority 2006, dated 2011).

Legend:
[1] = target: T1, HCV polymerase (NS5B) type 1b (Hepatitis C virus genotype 1b, UniProt P26663); experiment: Assay of enzyme (HCV polymerase) inhibitory activity, type 1b enzyme; assay type: biochemical, HCV BK strain (type 1b); settings: HCV polymerase inhibitory activity IC50, 1b, type 1b enzyme
T1 construct: a region encoding NS5B (J Virol 1991 March, 65(3), 1105-13, 544 amino acids after deletion of 47 amino acids on the C-terminal); 6xHis (C); made in house; host or cells: Escherichia coli
How it was run: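 Rxn: NS5B 1b (BK, ΔC47, His6) 0.5 μg/ml; substrate RNA 5 μg/ml; ATP/GTP/CTP 50 μM, UTP 2 μM + [5,6-3H]UTP; 20 mM Tris pH 7.5, 5 mM MgCl2, 50 mM NaCl, 1 mM EDTA/DTT. 25 °C, 60 min. Stop with TCA/pyrophosphate, filter, scintillation count; IC50 vs. untreated.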

[2] = target: T2, HCV polymerase (NS5B) type 1a (Hepatitis C virus genotype 1a, UniProt P26664); experiment: Assay of enzyme (HCV polymerase) inhibitory activity, type 1a enzyme; assay type: biochemical, HCV type 1a (cloned from the blood of patients); settings: HCV polymerase inhibitory activity IC50, 1a, type 1a enzyme
T2 construct: made in house; host or cells: Escherichia coli (by the 'similar method' of the 1b enzyme)
How it was run: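 NS5B Δ47 C-term His6 (type 1a, 1.5 μg/ml); substrate RNA 5 μg/ml; ATP/GTP/CTP 50 μM, UTP 2 μM + [5,6-3H]UTP; Tris pH 7.5, MgCl2 5 mM; 25° C, 60 min. TCA/pyrophosphate stop, GF/B filter, scintillation. IC50 vs no-compound control.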

| SMILES | IC50 [1] [nM] | IC50 [2] [nM] |
| --- | --- | --- |
| CNC(=O)c1n[nH]c(=O)c2sc(N3CCN(S(=O)(=O)c4ccc(OC(F)(F)F)cc4)[C@@H](C(=O)NCc4ccc(OC(F)(F)F)cc4)C3)nc12 [Example 875, 7-oxo-2-[(R)-4-(4-trifluoromethoxy-benzenesulfonyl)-3-(4-trifluoromethoxy-benzylcarbamoyl)-piperazin-1-yl]-6,7-dihydro-thiazolo[4,5-d]pyridazine-4-carboxylic acid methylamide] | < 100 | < 100 |
| NC(=O)c1n[nH]c(=O)c2sc(N3CCN(S(=O)(=O)c4ccc(OC(F)(F)F)cc4)[C@@H](C(=O)NCc4ccc(OC(F)(F)F)cc4)C3)nc12 [Example 876, 7-oxo-2-[(R)-4-(4-trifluoromethoxy-benzenesulfonyl)-3-(4-trifluoromethoxy-benzylcarbamoyl)-piperazin-1-yl]-6,7-dihydro-thiazolo[4,5-d]pyridazine-4-carboxylic acid amide] | < 100 | < 100 |
| O=C(NCc1ccc(OC(F)(F)F)cc1)[C@H]1CN(c2nc3cn[nH]c(=O)c3s2)CCN1S(=O)(=O)c1ccc(C(F)(F)F)cc1 [Example 877, (R)-4-(7-oxo-6,7-dihydro-thiazolo[4,5-d]pyridazin-2-yl)-1-(4-trifluoromethyl-benzenesulfonyl)-piperazine-2-carboxylic acid 4-trifluoromethoxy-benzylamide] | < 100 | < 100 |
| O=C(NCc1ccc(OC(F)(F)F)cc1)[C@H]1CN(c2nc3nc(O)ncc3s2)CCN1S(=O)(=O)c1ccc(OC(F)(F)F)cc1 [Example 878, (R)-4-(5-hydroxy-thiazolo[4,5-d]pyrimidin-2-yl)-1-(4-trifluoromethoxy-benzenesulfonyl)-piperazine-2-carboxylic acid 4-trifluoromethoxy-benzylamide] | < 100 | < 100 |
| O=C(NCc1ccc(OC(F)(F)F)cc1)[C@H]1CN(c2nc3cnncc3s2)CCN1S(=O)(=O)c1ccc(OC(F)(F)F)cc1 [Example 879, (R)-4-thiazolo[4,5-d]pyridazin-2-yl-1-(4-trifluoromethoxy-benzenesulfonyl)-piperazine-2-carboxylic acid 4-trifluoromethoxy-benzylamide] | < 100 | < 100 |
| CCCc1ccc(CNC(=O)[C@H]2CN(c3nc4c(C(=O)OCC)nnc(Cl)c4s3)CCN2S(=O)(=O)c2ccc(CC)cc2)cc1 [Example 880, 7-chloro-2-[(R)-4-(4-ethyl-benzenesulfonyl)-3-(4-propyl-benzylcarbamoyl)-piperazin-1-yl]-thiazolo[4,5-d]pyridazine-4-carboxylic acid ethyl ester] | < 100 | < 100 |
| O=C(NCc1ccc(OC(F)(F)F)cc1)[C@H]1CN(c2nc3cn[nH]c(=O)c3s2)CCN1S(=O)(=O)c1ccc(Br)cc1 [Example 881, (R)-1-(4-bromo-benzenesulfonyl)-4-(7-oxo-6,7-dihydro-thiazolo[4,5-d]pyridazin-2-yl)-piperazine-2-carboxylic acid 4-trifluoromethoxy-benzylamide] | < 100 | < 100 |
| COCC1(c2ccc(CNC(=O)[C@H]3CN(c4nc5cn[nH]c(=O)c5s4)CCN3S(=O)(=O)c3ccc(OC(F)(F)F)cc3)cc2)CC1 [Example 882, (R)-4-(7-oxo-6,7-dihydro-thiazolo[4,5-d]pyridazin-2-yl)-1-(4-trifluoromethoxy-benzenesulfonyl)-piperazine-2-carboxylic acid 4-(1-methoxymethyl-cyclopropyl)-benzylamide] | < 100 | 100 to 1000 |
| CCN(C)c1ccc(CNC(=O)[C@H]2CN(c3nc4cn[nH]c(=O)c4s3)CCN2S(=O)(=O)c2ccc(OC(F)(F)F)cc2)cc1 [Example 883, (R)-4-(7-oxo-6,7-dihydro-thiazolo[4,5-d]pyridazin-2-yl)-1-(4-trifluoromethoxy-benzenesulfonyl)-piperazine-2-carboxylic acid 4-(ethyl-methyl-amino)-benzylamide] | < 100 | < 100 |
| COc1ccc(S(=O)(=O)N2CCN(c3nc4cn[nH]c(=O)c4s3)C[C@@H]2C(=O)NCc2ccc(OC(F)(F)F)cc2)cc1 [Example 884, (R)-1-(4-methoxy-benzenesulfonyl)-4-(7-oxo-6,7-dihydro-thiazolo[4,5-d]pyridazin-2-yl)-piperazine-2-carboxylic acid 4-trifluoromethoxy-benzylamide] | < 100 | < 100 |
| O=C(NCc1ccc(OC(F)(F)F)cc1)[C@H]1CN(c2nc3cncnc3s2)CCN1S(=O)(=O)c1ccc(OC(F)(F)F)cc1 [Example 885, (R)-4-thiazolo[5,4-d]pyrimidin-2-yl-1-(4-trifluoromethoxy-benzenesulfonyl)-piperazine-2-carboxylic acid 4-trifluoromethoxy-benzylamide] | < 100 | < 100 |
| O=C(NCc1ccc(OC(F)(F)F)cc1)[C@H]1CN(c2nc3ncncc3s2)CCN1S(=O)(=O)c1ccc(C(F)(F)F)cc1 [Example 886, (R)-4-thiazolo[4,5-d]pyrimidin-2-yl-1-(4-trifluoromethyl-benzenesulfonyl)-piperazine-2-carboxylic acid 4-trifluoromethoxy-benzylamide] | < 100 | < 100 |
| O=C(NCc1ccc(OC(F)(F)F)cc1)[C@H]1CN(c2nc3nc(Cl)ncc3s2)CCN1S(=O)(=O)c1ccc(C(F)(F)F)cc1 [Example 887, (R)-4-(5-chloro-thiazolo[4,5-d]pyrimidin-2-yl)-1-(4-trifluoromethyl-benzenesulfonyl)-piperazine-2-carboxylic acid 4-trifluoromethoxy-benzylamide] | < 100 | < 100 |
| O=C(NCc1ccc(OC(F)(F)F)cc1)[C@H]1CN(c2nc3nc(O)nc(O)c3s2)CCN1S(=O)(=O)c1ccc(OC(F)(F)F)cc1 [Example 888, (R)-4-(5,7-dihydroxy-thiazolo[4,5-d]pyrimidin-2-yl)-1-(4-trifluoromethoxy-benzenesulfonyl)-piperazine-2-carboxylic acid 4-trifluoromethoxy-benzylamide] | < 100 | < 100 |
| CCCc1ccc(CNC(=O)[C@H]2CN(c3ccc(C(=O)O)c(F)c3)CCN2S(=O)(=O)c2ccc(CC)cc2)cc1 [Example 889, 4-[(R)-4-(4-ethyl-benzenesulfonyl)-3-(4-propyl-benzylcarbamoyl)-piperazin-1-yl]-2-fluoro-benzoic acid] | > 1000 | > 1000 |
| CCC(C)(C)c1ccc(CNC(=O)[C@H]2CN(c3nc(Cl)c(C(=O)O)s3)CCN2S(=O)(=O)c2ccc(OC(F)(F)F)cc2)cc1 [Example 890, 4-chloro-2-[(R)-3-[4-(1,1-dimethyl-propyl)-benzylcarbamoyl]-4-(4-trifluoromethoxy-benzenesulfonyl)-piperazin-1-yl]-thiazole-5-carboxylic acid] | < 100 | < 100 |
| CCCc1ccc(CNC(=O)[C@H]2CN(c3nc4c(C(=O)OCC)nncc4s3)CCN2S(=O)(=O)c2ccc(CC)cc2)cc1 [Example 891, 2-[(R)-4-(4-ethyl-benzenesulfonyl)-3-(4-propyl-benzylcarbamoyl)-piperazin-1-yl]-thiazolo[4,5-d]pyridazine-4-carboxylic acid ethyl ester] | < 100 | < 100 |
| CCCc1ccc(CNC(=O)[C@H]2CN(c3nc4c(C(=O)O)nncc4s3)CCN2S(=O)(=O)c2ccc(CC)cc2)cc1 [Example 892, 2-[(R)-4-(4-ethyl-benzenesulfonyl)-3-(4-propyl-benzylcarbamoyl)-piperazin-1-yl]-thiazolo[4,5-d]pyridazine-4-carboxylic acid] | < 100 | < 100 |
| Cc1n[nH]c(=O)c2sc(N3CCN(S(=O)(=O)c4ccc(C(F)(F)F)cc4)[C@@H](C(=O)NCc4ccc(OC(F)(F)F)cc4)C3)nc12 [Example 893, (R)-4-(4-methyl-7-oxo-6,7-dihydro-thiazolo[4,5-d]pyridazin-2-yl)-1-(4-trifluoromethyl-benzenesulfonyl)-piperazine-2-carboxylic acid 4-trifluoromethoxy-benzylamide] | < 100 | < 100 |
| CCC(F)(F)c1ccc(CNC(=O)[C@H]2CN(c3nc4ncncc4s3)CCN2S(=O)(=O)c2ccc(OC(F)(F)F)cc2)cc1 [Example 894, (R)-4-thiazolo[4,5-d]pyrimidin-2-yl-1-(4-trifluoromethoxy-benzenesulfonyl)-piperazine-2-carboxylic acid 4-(1,1-difluoro-propyl)-benzylamide] | < 100 | < 100 |
| CCC(F)(F)c1ccc(CNC(=O)[C@H]2CN(c3nc4nc(Cl)ncc4s3)CCN2S(=O)(=O)c2ccc(OC(F)(F)F)cc2)cc1 [Example 895, (R)-4-(5-chloro-thiazolo[4,5-d]pyrimidin-2-yl)-1-(4-trifluoromethoxy-benzenesulfonyl)-piperazine-2-carboxylic acid 4-(1,1-difluoro-propyl)-benzylamide] | < 100 | < 100 |
| O=C(NCc1ccc(OC(F)(F)F)cc1)[C@H]1CN(c2nc3cnnc(Cl)c3s2)CCN1S(=O)(=O)c1ccc(C(F)(F)F)cc1 [Example 896, (R)-4-(7-chloro-thiazolo[4,5-d]pyridazin-2-yl)-1-(4-trifluoromethyl-benzenesulfonyl)-piperazine-2-carboxylic acid 4-trifluoromethoxy-benzylamide] | < 100 | < 100 |
